# Data from paper PMC4898786 (Nature, 2016).
# What was measured:
# [1] = target: ts3 SERT (Y110A, I291A, T439S) (Homo sapiens, UniProt P31645, C554A/C580A/C622A/I291A/T439S/Y110A); assay: [14C]5-HT uptake in transfected HEK293 cells, Michaelis-Menten; format: cell-based
# [2] = target: ts2 SERT (I291A, T439S) (Homo sapiens, UniProt P31645, C554A/C580A/C622A/I291A/T439S)
smiles,measurement,setting,value
"NCCc1c[nH]c2ccc(O)cc12 [serotonin, 5-hydroxytryptamine]",serotonin transport activity,[1],No detectable transport activity
same,Vmax of serotonin transport,[2],21 ± 5 pmol/min
same,Km,[2]; read-out: KM of serotonin transport,4.5 ± 0.6 µM
